Laboratory results: publication PMC4338433 (Scientific Reports, 2015)

How the values were obtained:
[1] = target: H. contortus AVR-14B GluCl (wild-type) (Haemonchus contortus, UniProt O46124); type: cell-based; settings: Wild-type AVR-14B GluCl, mean ± s.e.m.
Description: (§1) All mutant cDNAs were generated from AVR-14B cDNA in the T7 plasmid vector[45] by conventional PCR with Pfu DNA polymerase (Thermo Scientific, Germany) and commercially generated mutagenesis primers (Eurofins MWG Operon, Ebersberg, Germany). All cDNAs were sequenced to confirm the presence of appropriate mutations (Eurofins MWG Operon) and linearized with XbaI (Thermo Scientific). cRNAs were synthesized with the mMESSAGE mMACHINE T7 Kit (Life Technologies GmbH, Darmstadt, Germany). X. laevis oocytes were used for two electrode voltage-clamp electrophysiology as previously described[48] and under approval of the Technical University of Darmstadt (Agreement V54-19c20/15 DA8/Anz. 20). […] Non-linear regression parameters were compared to the respective WT value with Student's unpaired t tests (Prism4).

AVR-14B GluCl R76N = assay: Two electrode voltage-clamp of Xenopus laevis oocytes expressing R76N mutant AVR-14B GluCl; type: cell-based, Haemonchus contortus
Description: as §1, with “20). After 2–5 days, oocytes were perfused with extracellular solution (115 mM NaCl, 1 mM KCl, 1.8 mM CaCl2, 10 mM HEPES, pH 7.4 with NaOH) alone or containing agonist, and currents were sampled at 1 kHz and filtered at 500 Hz with a Digidata 1322A digitizer, Geneclamp 500B amplifier and Clampex software (Molecular Devices, Sunnyvale, CA, USA).” for “20).”

AVR-14B GluCl K219A = target: T1, AVR-14B GluCl K219A (Haemonchus contortus, UniProt O46124, K219A); settings: K219A mutant, mean ± s.e.m.
T1 sequence (O46124 31-438 K219A): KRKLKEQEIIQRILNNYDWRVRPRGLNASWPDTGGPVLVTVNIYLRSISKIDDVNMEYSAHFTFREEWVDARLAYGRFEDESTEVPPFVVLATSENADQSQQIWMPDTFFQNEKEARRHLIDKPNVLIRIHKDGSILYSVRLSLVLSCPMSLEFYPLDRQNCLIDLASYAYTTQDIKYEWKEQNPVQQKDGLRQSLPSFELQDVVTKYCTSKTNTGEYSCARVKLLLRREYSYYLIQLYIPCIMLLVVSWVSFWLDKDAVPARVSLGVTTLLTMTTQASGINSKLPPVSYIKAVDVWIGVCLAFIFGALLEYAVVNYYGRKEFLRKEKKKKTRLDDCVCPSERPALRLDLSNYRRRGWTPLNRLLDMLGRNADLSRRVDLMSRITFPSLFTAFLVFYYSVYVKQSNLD
Description: as §1

AVR-14B GluCl Q141R = target: T2, AVR-14B GluCl Q141R (Haemonchus contortus, UniProt O46124, Q141R); settings: Q141R mutant; mean ± s.e.m.
T2 sequence (O46124 31-438 Q141R): T1 sequence (O46124 31-438 K219A)
Description: as §1

[2] = target: T3, AVR-14B GluCl R76N/Q141R/K219A (RN/QR/KA) (Haemonchus contortus, UniProt O46124, K219A/Q141R/R76N); settings: R76N/Q141R/K219A triple-mutant; mean ± s.e.m.
T3 sequence (O46124 31-438 R76N/Q141R/K219A): T1 sequence (O46124 31-438 K219A)
Description: as §1

AVR-14B GluCl S169A = target: T4, AVR-14B GluCl S169A (Haemonchus contortus, UniProt O46124, S169A); settings: S169A mutant, mean ± s.e.m.
T4 sequence (O46124 31-438 S169A): T1 sequence (O46124 31-438 K219A)
Description: as §1

AVR-14B GluCl T245A = target: T5, AVR-14B GluCl T245A (Haemonchus contortus, UniProt O46124, T245A); settings: T245A mutant, mean ± s.e.m.
T5 sequence (O46124 31-438 T245A): T1 sequence (O46124 31-438 K219A)
Description: as §1

AVR-14B GluCl Y248F = target: T6, AVR-14B GluCl Y248F (Haemonchus contortus, UniProt O46124, Y248F); settings: Y248F mutant, mean ± s.e.m.
T6 sequence (O46124 31-438 Y248F): T1 sequence (O46124 31-438 K219A)
Description: as §1

AVR-14B GluCl A197E = assay: Two electrode voltage-clamp of Xenopus laevis oocytes expressing A197E mutant AVR-14B GluCl; type: cell-based, Haemonchus contortus
Description: as §1, with “20). After 2–5 days, oocytes were perfused with extracellular solution (115 mM NaCl, 1 mM KCl, 1.8 mM CaCl2, 10 mM HEPES, pH 7.4 with NaOH) alone or containing agonist, and currents were sampled at 1 kHz and filtered at 500 Hz with a Digidata 1322A digitizer, Geneclamp 500B amplifier and Clampex software (Molecular Devices, Sunnyvale, CA, USA).” for “20).”

AVR-14B GluCl R95A = assay: Two electrode voltage-clamp of Xenopus laevis oocytes expressing R95A mutant AVR-14B GluCl; type: cell-based, Haemonchus contortus; settings: 1 μM ivermectin, mean ± s.e.m.
Description: as §1, with “20). After 2–5 days, oocytes were perfused with extracellular solution (115 mM NaCl, 1 mM KCl, 1.8 mM CaCl2, 10 mM HEPES, pH 7.4 with NaOH) alone or containing agonist, and currents were sampled at 1 kHz and filtered at 500 Hz with a Digidata 1322A digitizer, Geneclamp 500B amplifier and Clampex software (Molecular Devices, Sunnyvale, CA, USA).” for “20).”

AVR-14B GluCl Y199F = assay: Two electrode voltage-clamp of Xenopus laevis oocytes expressing Y199F mutant AVR-14B GluCl; type: cell-based, Haemonchus contortus; settings: 1 μM ivermectin, mean ± s.e.m.
Description: as §1, with “20). After 2–5 days, oocytes were perfused with extracellular solution (115 mM NaCl, 1 mM KCl, 1.8 mM CaCl2, 10 mM HEPES, pH 7.4 with NaOH) alone or containing agonist, and currents were sampled at 1 kHz and filtered at 500 Hz with a Digidata 1322A digitizer, Geneclamp 500B amplifier and Clampex software (Molecular Devices, Sunnyvale, CA, USA).” for “20).”

N[C@@H](CCC(=O)O)C(=O)O [Glutamate] was tested, and the “Glutamate nH” value ([1]; Hill coefficient) was 1.7 ± 0.2, the “Glutamate Imax” value ([1]; maximum glutamate-gated current) was 3.1 ± 0.3 μA and the Gating by glutamate (AVR-14B GluCl R76N; glutamate up to 100 mM) was “not substantially gated”. For the same molecule, the “Glutamate nH” value (AVR-14B GluCl K219A; Hill coefficient) was 2.1 ± 0.4, the “Glutamate Imax” value (AVR-14B GluCl K219A) was 3.3 ± 0.5 μA and the “Glutamate Imax” value (AVR-14B GluCl Q141R) was 1.1 ± 0.4 μA. For the same molecule, the “Glutamate Imax” value [2] was 2.3 ± 0.3 μA, the “Glutamate nH” value (AVR-14B GluCl S169A; Hill coefficient) was 1.8 ± 0.2 and the “Glutamate Imax” value (AVR-14B GluCl S169A) was 4.3 ± 1.1 μA. For the same molecule, the “Glutamate nH” value (AVR-14B GluCl T245A; Hill coefficient) was 2.0 ± 0.1, the “Glutamate Imax” value (AVR-14B GluCl T245A) was 5.5 ± 0.8 μA and the “Glutamate nH” value (AVR-14B GluCl Y248F; Hill coefficient) was 1.9 ± 0.2. The “Glutamate Imax” value (AVR-14B GluCl Y248F) was 4.3 ± 0.8 μA and the Glutamate-gated currents (AVR-14B GluCl A197E; effect of the A197E substitution) was “abolished”.

In the case of Ivermectin, the “Ivermectin Imax” value ([1]; 1 μM ivermectin) is reported as 2.4 ± 0.4 μA, the “Ivermectin Imax” value (AVR-14B GluCl R95A) is reported as 4.8 ± 1.9 μA and the “Ivermectin Imax” value (AVR-14B GluCl Y199F) is reported as 0.7 ± 0.2 μA. For the same molecule, the “Ivermectin Imax” value (AVR-14B GluCl R76N; 1 μM ivermectin, mean ± s.e.m.) was 3.6 ± 1.0 μA and the “Ivermectin Imax” value (AVR-14B GluCl A197E; 1 μM ivermectin, A197E mutant, mean ± s.e.m.) was 2.4 ± 0.7 μA.
